A word on the EC50: it is the concentration that produces a half-maximal response.

The target in this experiment is T1, CXCR7 (Homo sapiens, UniProt P25106).
T1 construct: host or cells: CHO-K1 (PathHunter CXCR7 b-arrestin cell line, stably transfected)
T1 sequence (P25106 whole entry): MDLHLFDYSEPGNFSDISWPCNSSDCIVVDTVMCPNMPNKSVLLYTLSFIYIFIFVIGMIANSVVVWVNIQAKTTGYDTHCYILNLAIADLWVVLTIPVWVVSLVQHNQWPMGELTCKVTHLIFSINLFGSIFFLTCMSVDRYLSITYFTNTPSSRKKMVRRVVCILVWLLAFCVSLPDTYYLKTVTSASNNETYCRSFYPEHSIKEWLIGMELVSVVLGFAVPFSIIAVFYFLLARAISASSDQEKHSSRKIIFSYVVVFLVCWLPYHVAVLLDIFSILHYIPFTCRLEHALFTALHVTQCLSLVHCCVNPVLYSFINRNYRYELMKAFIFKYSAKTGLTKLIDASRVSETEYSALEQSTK
The experiment in a line: PathHunter CHO-K1 CXCR7 b-arrestin assay (agonistic activity). It counts as cell-based. To be noted: PathHunter CHO-K1 CXCR7 b-arrestin cell line, 90 minutes at 37° C. As for the experimental part: The […] receptor and CXCR7 agonistic activities of the compounds of formula (I) are determined in accordance with the following experimental method.
The assay is using the PathHunter™ CHO-K1 CXCR7 b-arrestin cell line from DiscoverX. The system is based on the Enzyme Fragment Complementation Technology. Two complementing fragments of the b-galactosidase enzyme are expressed within stably transfected cells. The larger portion of b-gal, termed EA for Enzyme Acceptor, is fused to the C-terminus of b-arrestin 2. The smaller fragment, termed ProLink™ tag, is fused to CXCR7 at the C-terminus. Upon activation, b-arrestin is recruited which forces the interaction of ProLink and EA, allowing complementation of the two fragments of b-gal and the formation of a functional enzyme which is capable of hydrolysing the substrate and generating a chemiluminescent signal.
CHO-K1 CXCR7 b-arrestin cells are detached from culture dishes with a cell dissociation buffer (Invitrogen, #13151-014) and collected in growing medium (F12HAMS 90% (v/v)/FCS 10% (v/v), Penicilin/streptomycin 1% (v/v)). 5000 cells per well (in 20 μl) are seeded in a 384 well plate (white-walled, clear bottom; BD Falcon #353274). The plate is incubated at 37° C./5% CO2 for 24 hours. Medium is then replaced by […] (Invitrogen #31985) for 3 to 4 hours. Test compounds are dissolved at 10 mM in DMSO and serially diluted in DMSO to 200× of the final concentration for dose response curves. Compounds are then diluted 1:33.3 in HBSS1X. 5 μl/well of HBSS1X/20 mM HEPES/0.2% BSA are added to the assay plate followed by addition of 5 μl/well of diluted compounds. CXCL12 (Peprotech #300-28A) may be used as a reference agonist. The plate is incubated for 90 minutes at 37° C. 12 μl of detection reagent (Path Hunter Detection Kit, DiscoveRx, #93-0001) is transferred to the assay plate and to the plate is incubated for 1 hour at room temperature. Luminescent signal is read in a microplate reader (FLUOstar Optima, bmg). The calculated EC50 values may fluctuate depending on the daily cellular assay performance. Fluctuations of this kind are known to those skilled in the art.
With `CC(C)(C)NC(=O)C1CCN(Cc2cc(NC(=O)c3cccc(C(F)(F)F)n3)ccc2F)CC1` [Example 4.017, 6-Trifluoromethyl-pyridine-2-carboxylic acid [3-(4-tert-butylcarbamoyl-piperidin-1-ylmethyl)-4-fluoro-phenyl]-amide], a half-maximal response (EC50) required 2 nM.

`O=C(Nc1cccc(CN2CCC(C(=O)NCC(F)(F)F)CC2)c1)c1ccc(Cl)cc1` [Example 2.031] had an EC50 of 3 nM.

Regarding `COC(C)CNC(=O)C1CCN(Cc2cccc(NC(=O)c3cccc(C(F)(F)F)n3)c2)CC1` (stereo not shown) [Example 2.093], the EC50 stood at 6 nM.

With `Cc1cncc(C(=O)Nc2cccc(CN3CCC(C(=O)N4CCCC4(C)C)CC3)c2)c1` [Example 2.060], a half-maximal effect (EC50) was put at 10 nM.

On to `O=C(Nc1cncc(CN2CCC(C(=O)NC3CCCCC3)CC2)c1)c1ccc(F)cc1` [Example 3.005, 1-[5-(4-Fluoro-benzoylamino)-pyridin-3-ylmethyl]-piperidine-4-carboxylic acid cyclohexylamide], for which the response was half-maximal at 57 nM (EC50).

`CCCN(C)C(=O)C1CCN(Cc2cccc(NC(=O)c3cncc(C)c3)c2)CC1` [Example 2.056] gave an EC50 of 6 nM.

For `COCCN(C)C(=O)C1CCN(Cc2cccc(NC(=O)c3cncc(C)c3)c2)CC1` [Example 2.058], the EC50 amounted to 224 nM.

As to `CCN(CC)C(=O)C1CCN(Cc2cccc(NC(=O)c3cccs3)c2)CC1` [Example 2.074], a half-maximal effect (EC50) was put at 70 nM.

On to `Cc1cncc(C(=O)Nc2cccc(CN3CCC(C(=O)NCC4CC4)CC3)c2)c1` [Example 2.043], for which the EC50 amounted to 20 nM.

`Cc1cncc(C(=O)Nc2cccc(CN3CCC(C(=O)N4CC[C@H](F)C4)CC3)c2)c1` [Example 2.053] registered an EC50 of 195 nM.

As to `CC(C)(C)NC(=O)C1CCCN(Cc2cccc(NC(=O)c3cccc(C(F)(F)F)n3)c2)CC1` (racemic) [Example 2.086], the response was half-maximal at 10 nM (EC50).

In the case of `CC(C)(C)CNC(=O)C1CCN(Cc2cccc(NC(=O)c3cccc(C(F)(F)F)n3)c2)CC1` [Example 2.070], the response was half-maximal at 6 nM (EC50).

In the case of `CCC(C)(C)NC(=O)C1CCCN(Cc2cccc(NC(=O)c3cncc(C)c3)c2)CC1` (racemic) [Example 2.085], the EC50 turned out to be 68 nM.

As for `O=C(Nc1cc(CN2CCC(C(=O)NC3CCCCC3)CC2)ccn1)c1ccc(Cl)cc1` [Example 3.002, 1-[2-(4-Chloro-benzoylamino)-pyridin-4-ylmethyl]-piperidine-4-carboxylic acid cyclohexylamide], the EC50 came to 57 nM.

“1-{4-Chloro-3-[(2-phenyl-cyclopropanecarbonyl)-amino]-benzyl}-piperidine-4-carboxylic acid cyclohexylamide [Example 1.161]” yielded an EC50 of 26 nM.

`CC(C)C(CO)NC(=O)C1CCN(Cc2cccc(NC(=O)c3cccc(C(F)(F)F)n3)c2)CC1` (racemic) [Example 2.064] yielded an EC50 of 87 nM.

As for `O=C(Nc1cncc(CN2CCC(C(=O)NC3CCCCC3)CC2)c1)c1ccc(Cl)cc1` [Example 3.004, 1-[5-(4-Chloro-benzoylamino)-pyridin-3-ylmethyl]-piperidine-4-carboxylic acid cyclohexylamide], the EC50 is 36 nM.

Turning to `CC(C)CCNC(=O)C1CCN(Cc2cccc(NC(=O)c3cccc(C(F)(F)F)n3)c2)CC1` [Example 2.081], the midpoint of the response, the EC50, lay at 5 nM.

As for `Cc1cncc(C(=O)Nc2cccc(CN3CCC(C(=O)N4CCCC4C)CC3)c2)c1` (racemic) [Example 2.050], the concentration giving a half-maximal response (EC50) came to 26 nM.

In turn, `O=C(Nc1cccc(CN2CCC(C(=O)NC3CCCCC3)CC2)c1)c1cccnc1` [Example 1.003, N-[3-(4-Cyclohexylcarbamoyl-piperidin-1-ylmethyl)-phenyl]-nicotinamide] yielded a concentration giving a half-maximal response (EC50) of 23 nM.

`Cc1cncc(C(=O)Nc2cccc(CN3CCC(C(=O)NC(C)C)CC3)c2)c1` [Example 2.038] registered an EC50 of 12 nM.

The molecule `O=C(Nc1cccc(CN2CCC(C(=O)NCc3cccnc3)CC2)c1)c1ccc(Cl)cc1` [Example 2.023] showed a half-maximal effective concentration (EC50) of 162 nM.

With `O=C(Nc1ccnc(CN2CCC(C(=O)NC3CCCCC3)CC2)c1)c1ccc(F)cc1` [Example 3.006, 1-[4-(4-Fluoro-benzoylamino)-pyridin-2-ylmethyl]-piperidine-4-carboxylic acid cyclohexylamide], the EC50 was 56 nM.

Consider `Cc1cncc(C(=O)Nc2cccc(CN3CCC(C(=O)N4CCC(F)(F)C4)CC3)c2)c1` [Example 2.054], for which the EC50 was 109 nM.

In turn, `CNC(=O)C1CCN(Cc2cccc(NC(=O)c3cccc(C(F)(F)F)n3)c2)CC1` [Example 2.068] yielded a 50% effective concentration (EC50) of 4 nM.

For `Cc1cncc(C(=O)Nc2cccc(CN3CCC(C(=O)NC4CCCC4)C3)c2)c1` (stereo not shown) [Example 2.062], the EC50 came to 28 nM.

As to `Cc1cncc(C(=O)Nc2cccc(CN3CCC(C(=O)NC4(C#N)CC4)CC3)c2)c1` [Example 2.045], the half-maximal effective concentration (EC50) was determined as 402 nM.

Turning to `CC(C)NC(=O)C1CCN(Cc2cccc(NC(=O)c3ccc(Cl)cc3)c2)CC1` [Example 2.003], the EC50 was determined as 0.8 nM.

As for `O=C(Nc1cccc(CN2CCC(C(=O)NC3CCCCC3)CC2)c1)c1ccc(F)c[n+]1[O-]` [Example 4.005, 5-Fluoro-1-oxy-pyridine-2-carboxylic acid [3-(4-cyclohexylcarbamoyl-piperidin-1-ylmethyl)-phenyl]-amide], the EC50 came out at 4 nM.

In turn, “N-[3-(4-Cyclopropylcarbamoyl-piperidin-1-ylmethyl)-phenyl]-6-methyl-nicotinamide [Example 1.202]” displayed an EC50 of 145 nM.

“N-[3-(4-tert-Butylcarbamoyl-piperidin-1-ylmethyl)-phenyl]-5-methoxy-nicotinamide [Example 4.014]” gave an EC50 of 8 nM.

As for `Cc1cncc(C(=O)Nc2cccc(CN3CCC(C(=O)NC4CCCCC4)C3)c2)c1` (stereo not shown) [Example 2.063], the midpoint of the response, the EC50, lay at 92 nM.

`CCC(C)(C)NC(=O)C1CCCN(Cc2cccc(NC(=O)c3cccc(C(F)(F)F)n3)c2)CC1` (racemic) [Example 2.088]: the EC50 came out at 19 nM.

`CCC(CC)NC(=O)C1CCN(Cc2cccc(NC(=O)c3cncc(C)c3)c2)CC1` [Example 2.040] yielded an EC50 of 8 nM.

`Cc1cncc(C(=O)Nc2cccc(CN3CCC(C(=O)N4CCC(F)(F)CC4)CC3)c2)c1` [Example 2.049] showed a concentration giving a half-maximal response (EC50) of 300 nM.

Molecule `O=C(Nc1cccc(CN2CCC(C(=O)NC3CCCC3)CC2)c1)c1ccc(Cl)cc1` [Example 2.001, 1-[3-(4-Chloro-benzoylamino)-benzyl]-piperidine-4-carboxylic acid cyclopentylamide] registered an EC50 of 0.9 nM.

In the case of `CC(C)(C)[C@@H](CO)NC(=O)C1CCN(Cc2cccc(NC(=O)c3cccc(C(F)(F)F)n3)c2)CC1` [Example 2.067], the EC50 turned out to be 406 nM.

In turn, `O=C(Nc1cc(CN2CCC(C(=O)NC3CCCCC3)CC2)ccn1)c1ccc(F)cc1` [Example 3.001, 1-[2-(4-Fluoro-benzoylamino)-pyridin-4-ylmethyl]-piperidine-4-carboxylic acid cyclohexylamide] yielded an EC50 of 24 nM.

In turn, `O=C(Nc1cccc(CN2CCC(C(=O)NC3CCCCC3)CC2)c1)c1ccc(Cl)cc1` [Example 1.001, 1-[3-(4-Chloro-benzoylamino)-benzyl]-piperidine-4-carboxylic acid cyclohexylamide] displayed an EC50 of 2 nM.

In turn, `CCCCCCNC(=O)C1CCN(Cc2cccc(NC(=O)c3cccc(C(F)(F)F)n3)c2)CC1` [Example 2.078] came in with an EC50 of 257 nM.

With `COCC(C)NC(=O)C1CCN(Cc2cccc(NC(=O)c3cccc(C(F)(F)F)n3)c2)CC1` (stereo not shown) [Example 2.092], the EC50 is 3 nM.

The molecule `Cc1cncc(C(=O)Nc2cccc(CN3CCCC(C(=O)NCC4CC4)CC3)c2)c1` (racemic) [Example 2.084] showed an EC50 of 304 nM.

For the molecule `Cc1cncc(C(=O)Nc2ccc(F)c(CN3CCC(C(=O)NC4CCCCC4)CC3)c2)c1` [Example 4.018, N-[3-(4-Cyclohexylcarbamoyl-piperidin-1-ylmethyl)-4-fluoro-phenyl]-5-methyl-nicotinamide], the EC50 was 11 nM.

`Cc1cc(CNC(=O)C2CCN(Cc3cccc(NC(=O)c4ccc(Cl)cc4)c3)CC2)c(C(F)(F)F)o1` [Example 2.034] showed an EC50 of 533 nM.

Regarding `CC(C)(C)NC(=O)C1CCN(Cc2cc(NC(=O)Cc3ccccc3Cl)cs2)CC1` [Example 3.011, 1-{4-[2-(2-Chloro-phenyl)-acetylamino]-thiophen-2-ylmethyl}-piperidine-4-carboxylic acid tert-butylamide], the concentration giving a half-maximal response (EC50) is 28 nM.

The molecule `CN(C)C(=O)C1CCN(Cc2cccc(NC(=O)c3cccs3)c2)CC1` [Example 2.073] displayed an EC50 of 155 nM.

The values above are taken from patent US20130345199A1, “1-[M-CARBOXAMIDO(HETERO)ARYL-METHYL]-PIPERIDINE-4-CARBOXAMIDE DERIVATIVES” (Actelion Pharmaceuticals Ltd., priority 2012, published 2013).
